# Reference: paper PMC3098721 (Molecular microbiology, 2010)
# Molecular target: PqsH (MBP-PqsH) (Pseudomonas aeruginosa, UniProt Q02N79)
# Test: PQS fluorescence after ethyl acetate extraction, Michaelis-Menten fit
# Format: biochemical
# Settings: NADH and O2 constant at saturating levels; pH 8.0
# Chain of PqsH (MBP-PqsH) (Q02N79 2-382): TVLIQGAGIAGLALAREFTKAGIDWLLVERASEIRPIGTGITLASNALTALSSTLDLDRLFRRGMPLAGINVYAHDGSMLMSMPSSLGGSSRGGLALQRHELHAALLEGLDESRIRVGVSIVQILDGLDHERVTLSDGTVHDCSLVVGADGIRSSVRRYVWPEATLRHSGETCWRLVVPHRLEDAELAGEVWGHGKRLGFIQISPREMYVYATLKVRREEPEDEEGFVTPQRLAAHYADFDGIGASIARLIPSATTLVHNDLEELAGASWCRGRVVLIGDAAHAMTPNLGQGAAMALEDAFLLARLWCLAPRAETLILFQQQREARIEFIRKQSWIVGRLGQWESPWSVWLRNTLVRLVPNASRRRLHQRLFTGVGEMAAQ
compound,measurement,value
CCCc1cc(=O)c2ccccc2[nH]1 [C3-HHQ],Km,almost entirely due to elevated Km values
